Test results: patent US9555039B2, “Piperidine derivatives and compositions for the inhibition of nicotinamide phosphoribosyltransferase (NAMPT)” (Forma TM, LLC., priority 2011, dated 2017)
Like-named read-outs stand apart in the source and are kept apart here.

Experiments:
[1] = target: T1, Recombinant His-tagged NAMPT (Homo sapiens, UniProt P43490); test: Biochemical inhibition assay: NAMPT enzymatic reaction, NMN quantified by mass spectrometry; conditions: 33 nM NAMPT, 1 μM NAM, 100 μM PRPP, 30 minutes at room temperature, read-out: Biochem IC50
T1 construct: His; host or cells: E. coli
T1 sequence (P43490 whole entry): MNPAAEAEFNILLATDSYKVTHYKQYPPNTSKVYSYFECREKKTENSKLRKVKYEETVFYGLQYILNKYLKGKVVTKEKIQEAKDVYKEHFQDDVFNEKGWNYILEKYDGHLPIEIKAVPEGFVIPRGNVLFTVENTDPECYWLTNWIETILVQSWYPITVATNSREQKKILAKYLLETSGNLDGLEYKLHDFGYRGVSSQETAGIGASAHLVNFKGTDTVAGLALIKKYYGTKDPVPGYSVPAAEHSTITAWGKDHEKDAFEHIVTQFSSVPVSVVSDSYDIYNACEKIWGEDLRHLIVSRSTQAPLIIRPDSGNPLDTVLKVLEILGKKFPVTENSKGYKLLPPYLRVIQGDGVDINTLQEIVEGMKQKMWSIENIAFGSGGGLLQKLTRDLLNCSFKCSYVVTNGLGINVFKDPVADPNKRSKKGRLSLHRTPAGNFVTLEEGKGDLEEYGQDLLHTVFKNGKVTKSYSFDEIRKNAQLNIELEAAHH
Method: Biochemical Inhibition Assay
NAMPT Protein Purification
Recombinant His-tagged NAMPT was produced in E. coli cells, purified over a Ni column, and further purified over a size-exclusion column by XTAL Biostructures.
The NAMPT Enzymatic Reaction
The NAMPT enzymatic reactions were carried out in Buffer A (50 mM Hepes pH 7.5, 50 mM NaCl, 5 mM MgCl2, and 1 mM THP) in 96-well V-bottom plates. The compound titrations were performed in a separate dilution plate by serially diluting the compounds in DMSO to make a 100× stock. […] The compound and enzyme mix was incubated for 15 minutes at room temperature, then 10 μL of 10× substrate and co-factors in Buffer A were added to the test well to make a final concentration of 1 μM NAM, 100 μM 5-Phospho-D-ribose 1-diphosphate (PRPP), and 2.5 mM Adenosine 5′-triphosphate (ATP). The reaction was allowed to proceed for 30 minutes at room temperature, then was quenched with the addition of 11 μL of a solution of formic acid and L-Cystathionine to make a final concentration of 1% formic acid and 10 μM L-Cystathionine. Background and signal strength was determined by addition (or non-addition) of a serial dilution of NMN to a pre-quenched enzyme and cofactor mix.
A mass spectrometry-based assay was used to measure the Nampt reaction product (NMN) and the internal control (L-Cystathionine). NMN and L-Cystathionine were detected using the services of Biocius Lifesciences with the RapidFire system. In short, the NMN and L-Cystathionine are bound to a graphitic carbon cartridge in 0.1% formic acid, eluted in 30% acetonitrile buffer, and injected into a Sciex 4000 mass spectrometer. The components of the sample were ionized with electrospray ionization and the positive ions were detected. […] The fragments are quantified and the analyzed by the following method.
First the NMN signal is normalized to the L-Cystathionine signal by dividing the NMN signal by the L-Cystathionine signal for each well. The signal from the background wells are averaged and subtracted from the test plates.
Wherein x denotes the average signal of the compound treated wells and y denotes the average signal of the DMSO treated wells.
IC50s are Determined Using Excel and this Formula.
Wherein X denotes the compound concentration 1, Y denotes the compound concentration 2, XX denotes the % inhibition at compound concentration 1 (X), and YY denotes the % inhibition at compound concentration 2 (Y).

A2780 cells = test: In-vitro cell proliferation assay (SRB, 72 hours); format: cell-based; conditions: sulforhodamine B (SRB) assay
Method: In-Vitro Cell Proliferation Assay
After overnight incubation at 37° C. and 5% CO2, the compound titrations were performed in a separate dilution plate by serially diluting the compounds in DMSO to make a 1000× stock. The compounds were then further diluted to 10× final concentration in culture media, whereupon 20 μL of each dilution was added to the plated cells with controls (e.g. DMSO and blank) to make a final volume of 200 μL. The final DMSO concentration in each well was 0.1%. The plates were then incubated for 72 hours at 37° C. in a 5% CO2 incubator. The number of viable cells was then assessed using sulforhodamine B (SRB) assay. Cells were fixed at 4° C. for 1 hour with the addition of 50 μL 30% trichloroacetic acid (TCA) to make a final concentration of 6% TCA. The plates were washed four times with H2O and allowed to dry for at least 1 hour, whereupon 100 μL of a 4% SRB in 1% acetic acid solution was added to each well and incubated at room temperature for at least 30 minutes. The plates were then washed three times with 1% acetic acid, dried, and treated with 100 μL of 10 mM Tris-Base solution. The plates were then read in a microplate reader at an absorbance of 570 nm. Background was generated on a separate plate with media only.
Method for Determining % Inhibition
First, the signals from the background plate are averaged, then the background was subtracted from the test plates.
wherein x denotes the average signal of the compound-treated cells and y denotes the average signal of the DMSO-treated cells.
wherein X denotes the compound concentration 1, Y denotes the compound concentration 2, XX denotes the % inhibition at compound concentration 1 (X), and YY denotes the % inhibition at compound concentration 2 (Y).

SMILES | IC50 ([1]; 2.5 mM ATP) | IC50 (A2780 cells; Homo sapiens) | IC50 ([1]; […] ATP) | IC50 (A2780 cells)
O=C(NCCCCC1CCN(C(=O)c2cccc(F)c2F)CC1)c1cc2ccncc2s1 [N-(4-{1-[(2,3-difluorophenyl)carbonyl]piperidin-4-yl}butyl)thieno[2,3-c]pyridine-2-carboxamide] | 6.8 nM | 4.5 nM | – | –
O=C(NCCC1CCN(C(=O)c2ccccc2)CC1)c1cc2cnccc2[nH]1 [N-[2-(1-benzoylpiperidin-4-yl)ethyl]-1H-pyrrolo[3,2-c]pyridine-2-carboxamide] | 10000 nM | 20000 nM | – | –
Cc1ncccc1C(=O)N1CCC(CCCCNC(=O)c2cc3cnccc3[nH]2)CC1 [N-(4-{1-[(2-methylpyridin-3-yl)carbonyl]piperidin-4-yl}butyl)-1H-pyrrolo[3,2-c]pyridine-2-carboxamide] | 21.5 nM | 1.7 nM | – | –
COc1ccc(C(=O)N2CCC(CCCCNC(=O)c3cc4ccncc4s3)CC2)cc1OC [N-(4-{1-[(3,4-dimethoxyphenyl)carbonyl]piperidin-4-yl}butyl)thieno[2,3-c]pyridine-2-carboxamide] | 32.6 nM | 6.9 nM | – | –
Cn1cnc(C(=O)N2CCC(CCCCNC(=O)c3ccc4nccn4c3)CC2)c1 [N-(4-{1-[(1-methyl-1H-imidazol-4-yl)carbonyl]piperidin-4-yl}butyl)imidazo[1,2-a]pyridine-6-carboxamide] | 56.7 nM | 107 nM | – | –
O=C(NCCCCC1CCN(C(=O)c2ccc(Cl)cc2)CC1)c1ccc2nccn2c1 [N-(4-{1-[(4-chlorophenyl)carbonyl]piperidin-4-yl}butyl)imidazo[1,2-a]pyridine-6-carboxamide] | 84.6 nM | 100 to 1000 nM | – | –
O=C(NCCCCC1CCN(C(=O)c2cc3ccccc3[nH]2)CC1)c1cc2cnccc2[nH]1 [N-(4-{1-[(1H-indol-2-yl)carbonyl]piperidin-4-yl}butyl)-1H-pyrrolo[3,2-c]pyridine-2-carboxamide] | 125 nM | 60.3 nM | – | –
CSc1ncccc1C(=O)N1CCC(CCCCNC(=O)c2cc3cnccc3[nH]2)CC1 [N-[4-(1-{[2-(methylsulfanyl)pyridin-3-yl]carbonyl}piperidin-4-yl)butyl]-1H-pyrrolo[3,2-c]pyridine-2-carboxamide] | 8.3 nM | 0.7 nM | – | –
O=C(NCCCCC1CCN(C(=O)c2cc3ccccc3s2)CC1)c1cc2ccncc2s1 [N-(4-{1-[(1-benzothiophen-2-yl)carbonyl]piperidin-4-yl}butyl)thieno[2,3-c]pyridine-2-carboxamide] | 17.7 nM | 100 to 1000 nM | – | –
O=C(NCCCCC1CCN(C(=O)c2ccccn2)CC1)c1ccc2nccn2c1 [N-(4-{1-[(pyridin-2-yl)carbonyl]piperidin-4-yl}butyl)imidazo[1,2-a]pyridine-6-carboxamide] | 36.4 nM | 13.5 nM | – | –
O=C(NCCCCC1CCN(C(=O)c2c(F)cccc2F)CC1)c1ccc2nccn2c1 [N-(4-{1-[(2,6-difluorophenyl)carbonyl]piperidin-4-yl}butyl)imidazo[1,2-a]pyridine-6-carboxamide] | 4.7 nM | 1.2 nM | – | –
O=C(NCCCCC1CCN(C(=O)c2ccoc2)CC1)c1cc2cnccc2[nH]1 [N-(4-{1-[(furan-3-yl)carbonyl]piperidin-4-yl}butyl)-1H-pyrrolo[3,2-c]pyridine-2-carboxamide] | 9.1 nM | 10.1 nM | – | –
COc1cccc(C(=O)N2CCC(CCCCNC(=O)c3cc4cnccc4[nH]3)CC2)c1OC [N-(4-{1-[(2,3-dimethoxyphenyl)carbonyl]piperidin-4-yl}butyl)-1H-pyrrolo[3,2-c]pyridine-2-carboxamide] | 20.8 nM | 1.9 nM | – | –
Cc1cnc(C(=O)N2CCC(CCCCNC(=O)c3ccc4nccn4c3)CC2)cn1 [N-(4-{1-[(5-methylpyrazin-2-yl)carbonyl]piperidin-4-yl}butyl)imidazo[1,2-a]pyridine-6-carboxamide] | 10.9 nM | 66.7 nM | – | –
O=C(NCCCCC1CCN(C(=O)c2c(F)cccc2F)CC1)c1cc2ccncc2s1 [N-(4-{1-[(2,6-difluorophenyl)carbonyl]piperidin-4-yl}butyl)thieno[2,3-c]pyridine-2-carboxamide] | 4.3 nM | 0.8 nM | – | –
COc1ccc(OC)c(S(=O)(=O)N2CCC(CCCCNC(=O)c3cc4cnccc4[nH]3)CC2)c1 [N-(4-{1-[(2,5-dimethoxybenzene)sulfonyl]piperidin-4-yl}butyl)-1H-pyrrolo[3,2-c]pyridine-2-carboxamide] | – | – | 28.4 nM | 1.8 nM
O=C(NCCCCC1CCN(C(=O)c2cc(F)ccc2F)CC1)c1ccc2nccn2c1 [N-(4-{1-[(2,5-difluorophenyl)carbonyl]piperidin-4-yl}butyl)imidazo[1,2-a]pyridine-6-carboxamide] | 5 nM | 5 nM | – | –
O=C(NCCCCC1CCN(C(=O)c2ccccc2F)CC1)c1cc2cnccc2[nH]1 [N-(4-{1-[(2-fluorophenyl)carbonyl]piperidin-4-yl}butyl)-1H-pyrrolo[3,2-c]pyridine-2-carboxamide] | 7.5 nM | 0.5 nM | – | –
COc1ccc(C(=O)N2CCC(CCCCNC(=O)c3cc4ccncc4s3)CC2)cc1 [N-(4-{1-[(4-methoxyphenyl)carbonyl]piperidin-4-yl}butyl)thieno[2,3-c]pyridine-2-carboxamide] | 52.2 nM | 80.3 nM | – | –
O=C(NCCCCC1CCN(C(=O)c2ccccc2OC(F)(F)F)CC1)c1ccc2nccn2c1 [N-[4-(1-{[2-(trifluoromethoxy)phenyl]carbonyl}piperidin-4-yl)butyl]imidazo[1,2-a]pyridine-6-carboxamide] | 2.5 nM | 1.9 nM | – | –
O=C(NCCCCC1CCN(C(=O)c2ccc3ncsc3c2)CC1)c1cc2ccncc2s1 [N-(4-{1-[(1,3-benzothiazol-6-yl)carbonyl]piperidin-4-yl}butyl)thieno[2,3-c]pyridine-2-carboxamide] | 32.3 nM | 35.4 nM | – | –
Cc1ccc(F)cc1C(=O)N1CCC(CCCCNC(=O)c2cc3cnccc3[nH]2)CC1 [N-(4-{1-[(5-fluoro-2-methylphenyl)carbonyl]piperidin-4-yl}butyl)-1H-pyrrolo[3,2-c]pyridine-2-carboxamide] | 14.2 nM | 2.3 nM | – | –
O=C(NCCCCC1CCN(C(=O)c2ccc(C(F)(F)F)nc2)CC1)c1cc2ccncc2s1 [N-[4-(1-{[6-(trifluoromethyl)pyridin-3-yl]carbonyl}piperidin-4-yl)butyl]thieno[2,3-c]pyridine-2-carboxamide] | 90.3 nM | 414 nM | – | –
Cc1cnc(C(=O)N2CCC(CCCCNC(=O)c3cc4ccncc4s3)CC2)cn1 [N-(4-{1-[(5-methylpyrazin-2-yl)carbonyl]piperidin-4-yl}butyl)thieno[2,3-c]pyridine-2-carboxamide] | 68.5 nM | 100 to 1000 nM | – | –
O=C(NCCCCC1CCN(C(=O)c2ccc3c(c2)OCO3)CC1)c1cc2ccncc2s1 [N-(4-{1-[(2H-1,3-benzodioxol-5-yl)carbonyl]piperidin-4-yl}butyl)thieno[2,3-c]pyridine-2-carboxamide] | 21.1 nM | 100 to 1000 nM | – | –
O=C(NCCCCN1CCN(C(=O)c2cccc(Cl)c2)CC1)c1cc2cnccc2[nH]1 [N-(4-{4-[(3-chlorophenyl)carbonyl]piperazin-1-yl}butyl)-1H-pyrrolo[3,2-c]pyridine-2-carboxamide] | 106 nM | 347 nM | – | –
